# Key:
# [1] = tested on: breast carcinoma MCF-7 cells; assay: Multiparametric flow cytometry of caspase activity and membrane integrity; type: cell-based; conditions: MCF-7 (wild type p53), 24 hours
# Description: (§1) For multiparametric analysis of caspase-dependent cell death and loss of plasma membrane integrity, HeLa, MCF-7, or genetically engineered HCT116 cells (obtained from ATCC) were loaded with increasing concentrations of cell permeable control scrambled peptide or the Survivin peptide, harvested after culturing for 24 hours at 37° C., and analyzed for cell viability (propidium iodide, red channel) and active caspase-3 activity (CaspaTag™ from Intergen, Purchase, N.Y., green channel) by flow cytometry.
# Experiments were performed as in Example 13, except that breast carcinoma MCF-7 cells (wild type p53) were analyzed by multiparametric flow cytometry of induction of caspase activity and loss of cell membrane integrity after intracellular loading with cell permeable Control (SEQ ID NO:25) or Survivin (SEQ ID NO:19) cell permeable peptide.
# [2] = tested on: HCT116 colorectal cancer cells (p53+/+ or p53-/-); assay: as above; type: cell-based; design: dose or concentration left out as unconfirmed; conditions: 24 hours, p53+/+ versus p53-/-
# Description: as §1
# In these experiments, HCT116 colorectal cancer cells carrying wild type p53 (p53^+/+) or homozygously inactivated p53 (p53^−/−) (Bunz et al., Science, 282:1497-1501 (1998))) were incubated with […] of cell permeable Control (SEQ ID NO:25) or Survivin (SEQ ID NO:19) cell permeable peptide, harvested after 24 hours and analyzed by multiparametric flow cytometry of induction of caspase activity and loss of cell membrane integrity.
# HeLa cells [3] = assay: Stability of Hsp90 client proteins and caspase-3 proform, Western blot; type: cell-based, Human; conditions: increasing concentrations, 24 hours
# Description: To determine whether intracellular loading of the Survivin cell permeable peptide reproduced the effect of mAb 8E2 that disrupts the Survivin-Hsp90 interaction in destabilizing Survivin levels in vivo (FIG. 8), HeLa cells were loaded with the indicated increasing concentrations of cell permeable control (SEQ ID NO:25) or Survivin (SEQ ID NO:19) cell permeable peptide, harvested after 24 hours, and analyzed for stability of Hsp90 client proteins, Survivin and Akt. Polyclonal antibody to Akt was obtained from Cell Signaling Technology (Cat. No. 9272).
# [4] = tested on: breast carcinoma MCF-7 cells; assay: Soft agar colony formation (anchorage-independent growth); type: cell-based; conditions: 75 or 150 μm in growth media, relative to Control scrambled peptide
# Description: For soft agar colony formation, 2×10^4 adapted breast carcinoma MCF-7 cells were suspended in 1.5 ml of DMEM supplemented with 10% FBS and 0.35% bactoagar (Becton Dickinson, Sparks, Md.) in 36 mm tissue culture plates containing 1.5 ml of 0.75% agarose in growth medium at the bottom layer. The plates were incubated at 37° C. in a 5% CO2 incubator for 2-5 weeks. The colonies were stained with 0.005% crystal violet (Sigma) and counted using a dissecting microscope under high power field.
# The two upper plates shown in FIG. 19 had no visible cell colonies.
# HeLa cells [5] = assay: Annexin V labeling and propidium iodide multiparametric flow cytometry; type: cell-based, Human; conditions: increasing concentrations, eight hour incubation, 37° C.
# Description: HeLa cell cultures were treated with the indicated increasing concentrations of P31 (Survivin) or P33 (Control; SEQ ID NO:25) peptides, harvested after an eight hour incubation at 37° C., and analyzed for multiparametric flow cytometry of Annexin V labeling (X-axis, a marker of apoptosis) and propidium iodide staining (Y-axis, a marker of cell death).
# PC3 cells = assay: Immunoblotting of Hsp90 client proteins; type: cell-based; conditions: 75 and 150 μM, 8 hours
# Description: Survivin affects the stability and function of Hsp90 client proteins in tumor cells. PC3 cells were untreated or exposed to 75 and 150 μM concentrations of the survivin peptide (SEQ ID NO:19) (or control scrambled peptide; SEQ ID NO:25) for 8 hours and processed for immunoblotting against the Hsp90 client proteins survivin, AKT, and CDK-6. […] Conversely, the levels of Hsp90, Hsp70, and PCNA were not affected (FIG. 26A).
# telomerase = assay: TRAP assay on Hsp90 immunoprecipitates; type: cell-based; conditions: PC3 cells treated before immunoprecipitation
# Description: Survivin peptide treated PC3 cells were also tested for telomerase activity, which requires Hsp90 (Holt et al., Genes Dev., 13:817-26 (1999)). Cells were treated as in above, immunoprecipitated with an antibody to Hsp90, and telomerase activity was determined by TRAP assay (Kim and Wu, Nucleic Acids Res., 25:2595-7 (1997)) of the immunoprecipitates. Telomerase activity is indicated by a ladder of telomere products.
# HL-60 cells = assay: Cell killing by trypan blue exclusion; type: cell-based
# Description: The expression and function of the survivin-Hsp90 pathway in acute myelogenous leukemia (AML) cell lines was analyzed. Survivin was abundantly expressed in four AML cell lines, U937, K-562, THP-1 and HL-60, by Western blotting (FIG. 29A).
# [6] = tested on: HL-60 and THP-1 AML cell lines; assay: MTT cell viability, short versus full length peptide; type: cell-based; conditions: 4×10^5 cells
# Description: FIGS. 29B-29D are graphs depicting killing of AML cells by Survivin peptides. FIG. 29B depicts survivin peptide activity in HL-60 cells, measured by Trypan blue exclusion. FIGS. 29C and 29D depict killing, as measured using MTT, of HL-60 (FIG. 29C) or THP-1 (FIG. 29D) cells by full length Survivin peptide (SEQ ID NO:19), Survivin peptide K79-G83 (SEQ ID NO:20), or scrambled peptide (SEQ ID NO:25 and SEQ ID NO:28).
# The activity of a shorter Survivin peptide was also tested in an AML cell line. A shorter cell permeable Survivin peptide was synthesized by fusing the third α-helix of the Antennapedia carrier sequence to the amino-terminus of the Survivin peptide sequence K79-G83 (SEQ ID NO:20). […] The scrambled control peptide ([…]; SEQ ID NO:28) was ineffective (FIGS. 29C, D). For these experiments a higher number of cells was used (4×10^5) to produce a 50% killing efficiency by full length survivin peptide.
# recombinant Hsp90 = molecular target: T1, recombinant Hsp90 (Homo sapiens, UniProt P07900, S63T); assay: ELISA binding to recombinant Hsp90
# T1 construct: GST-Hsp90 (amino acids 1-732); GST (N); made in house; host or cells: E. coli
# Text: FIG. 31 is a graph depicting Hsp90 binding by Survivin peptides, measured by ELISA. Data are the mean±S.D. of two independent experiments.
sequence,measurement,setting,value
RQIKIWFQNRRMKWKKKHSSGCAFL (Synthetically generated peptide) [P31],caspase-dependent apoptosis,[1],induces apoptosis
same,accumulation of cells with high caspase activity and loss of plasma membrane integrity,[2],indistinguishable between p53^+/+ and p53^−/− HCT116 cells
same,levels of Survivin and Akt,HeLa cells [3],low levels of Survivin and Akt
same,anchorage-independent cell growth and survival,[4],completely inhibited
same,induction of apoptosis (Annexin V / propidium iodide),HeLa cells [5],induced apoptosis in a dose-dependent manner
same,"Hsp90 client proteins (survivin, Akt, CDK-4, CDK-6)",PC3 cells,caused disappearance of multiple Hsp90 client proteins
same,"levels of Hsp90, Hsp70, and PCNA",PC3 cells,not affected
same,telomerase activity,telomerase,abrogated telomerase activity
same,cell killing (trypan blue exclusion),HL-60 cells,dose-dependent and complete cell killing
same,killing efficiency,[6],50%
same,binding to recombinant Hsp90 in vitro,recombinant Hsp90,comparably bound recombinant Hsp90

# From US8420777B2, “Compounds that inhibit Hsp90 protein-protein interactions with IAP proteins” (University of Massachusetts, priority 2004, dated 2013)
